Data on 28 molecules can be found in ChEMBL document CHEMBL1821636, “Binding inhibitors of the bacterial sliding clamp by design” (J Med Chem, 2011).

Non-standard residues stand in square brackets, D forms with d. Residues, ends and D or L forms follow the SMILES beside them. Phe(3,4-Cl2) = N[C@@H](Cc1ccc(Cl)c(Cl)c1)C(=O)O; pGlu = O=C1CC[C@@H](C(=O)O)N1

Experiment [1] in a line: Inhibition of Escherichia coli polymerase 3alpha/beta subunit homo dimer interaction by plate binding assay.
Experiment [2] is described as follows: Binding affinity to Escherichia coli polymerase 3 beta subunit homo dimer by SPR assay. (In general: Surface plasmon resonance follows binding to a sensor surface in real time, without labels.)

The IC50 is the midpoint of a concentration-inhibition curve.

As for `CCC/C(=N\OCc1ccc(-c2ccccc2)cc1)C1C(=O)CC(C)(C2OCC(C)(C)CO2)OC1=O` (stereo not given), in experiment [1], the 50% inhibitory concentration (IC50) was found to be 270000 nM.
On the same count and under the same terms, to `CCC/C(=N\OC/C(Cl)=C/c1ccc(Cl)cc1)C1C(=O)CC(C)(C)CC1=O` belongs 350000 nM.
Turning to `CC[C@H](C)[C@H](N)C(=O)NCC(=O)N[C@@H](CCC(N)=O)C(=O)N[C@@H](C)C(=O)N[C@@H](CC(=O)O)C(=O)N[C@@H](CCSC)C(=O)N[C@@H](Cc1ccccc1)C(=O)NCC(=O)N[C@H](C(=O)O)C(C)C`, the IC50 in experiment [1] was found to be 96000 nM; in experiment [2] it was 3000 nM.
For `CC(C)C[C@H](NC(=O)[C@H](CC(=O)O)NC(=O)[C@H](CC(C)C)NC(=O)[C@@H](N)CCC(N)=O)C(=O)N[C@@H](Cc1ccccc1)C(=O)O`, in that order: 2600 nM and 620 nM.
For `CC(=O)N[C@@H](CCC(N)=O)C(=O)N[C@@H](CC(C)C)C(=O)N[C@@H](CC(=O)O)C(=O)N[C@@H](CC(C)C)C(=O)N[C@@H](Cc1ccccc1)C(=O)O`, in that order: 70 nM and 400 nM.
With `CC(=O)N[C@@H](CCC(N)=O)C(=O)N[C@@H](CC(C)C)C(=O)N[C@@H](CC(=O)O)C(=O)N[C@@H](CC(C)C)C(=O)N[C@@H](Cc1ccccc1Cl)C(=O)O`, the IC50 amounted to 34 nM in experiment [1] and 117 nM in experiment [2].
On the same counts, the results for `CC(=O)N[C@@H](CCC(N)=O)C(=O)N[C@@H](CC(C)C)C(=O)N[C@@H](CC(=O)O)C(=O)N[C@@H](CC(C)C)C(=O)N[C@@H](Cc1cccc(Cl)c1)C(=O)O` are 11 nM and 49 nM.
For `CC(=O)N[C@@H](CCC(N)=O)C(=O)N[C@@H](CC(C)C)C(=O)N[C@@H](CC(=O)O)C(=O)N[C@@H](CC(C)C)C(=O)N[C@@H](Cc1ccc(Cl)cc1)C(=O)O`, in that order: 27 nM and 20 nM.
On the same counts, the results for `CC(=O)N[C@@H](CCC(N)=O)C(=O)N[C@@H](CC(C)C)C(=O)N[C@@H](CC(=O)O)C(=O)N[C@@H](CC(C)C)C(=O)N[C@@H](Cc1ccc(Cl)c(Cl)c1)C(=O)O` are 21 nM and 23 nM.
Turning to `CCC(=O)N[C@@H](CCC(N)=O)C(=O)N[C@@H](CC(C)C)C(=O)N[C@@H](CC(=O)O)C(=O)N[C@@H](CC(C)C)C(=O)N[C@@H](Cc1ccc(Cl)c(Cl)c1)C(=O)O`, the figures for the IC50 in experiment [1] and in experiment [2] were 63 nM and 61 nM, respectively.
On the same counts, the results for `CC(C)C[C@H](NC(=O)[C@H](CC(=O)O)NC(=O)[C@H](CC(C)C)NC(=O)[C@H](CCC(N)=O)NC(=O)C(C)(C)C)C(=O)N[C@@H](Cc1ccc(Cl)c(Cl)c1)C(=O)O` are 62 nM and 69 nM.
On the same counts, the results for `CC(C)C[C@H](NC(=O)[C@H](CC(=O)O)NC(=O)[C@H](CC(C)C)NC(=O)[C@H](CCC(N)=O)NC(=O)COCc1ccccc1)C(=O)N[C@@H](Cc1ccc(Cl)c(Cl)c1)C(=O)O` are 67 nM and 337 nM.
For `CC(C)C[C@H](NC(=O)[C@H](CC(=O)O)NC(=O)[C@H](CC(C)C)NC(=O)[C@H](CCC(N)=O)NC(=O)Cc1c[nH]c2ccccc12)C(=O)N[C@@H](Cc1ccc(Cl)c(Cl)c1)C(=O)O`, in that order: 66 nM and 537 nM.
As to `COc1ccc(C(=O)N[C@@H](CCC(N)=O)C(=O)N[C@@H](CC(C)C)C(=O)N[C@@H](CC(=O)O)C(=O)N[C@@H](CC(C)C)C(=O)N[C@@H](Cc2ccc(Cl)c(Cl)c2)C(=O)O)c(OC)c1`, the concentration for half-maximal inhibition (IC50) in experiment [1] was 42 nM; in experiment [2], 27 nM.
For `CC(C)C[C@H](NC(=O)[C@H](CC(=O)O)NC(=O)[C@H](CC(C)C)NC(=O)[C@H](CCC(N)=O)NC(=O)c1ccccc1)C(=O)N[C@@H](Cc1ccc(Cl)c(Cl)c1)C(=O)O`, in that order: 69 nM and 456 nM.
For `CC(C)COC(=O)N[C@@H](CCC(N)=O)C(=O)N[C@@H](CC(C)C)C(=O)N[C@@H](CC(=O)O)C(=O)N[C@@H](CC(C)C)C(=O)N[C@@H](Cc1ccc(Cl)c(Cl)c1)C(=O)O`, in that order: 20 nM and 41 nM.
For `COC(=O)N[C@@H](CCC(N)=O)C(=O)N[C@@H](CC(C)C)C(=O)N[C@@H](CC(=O)O)C(=O)N[C@@H](CC(C)C)C(=O)N[C@@H](Cc1ccc(Cl)c(Cl)c1)C(=O)O`, in that order: 86 nM and 89 nM.
For the molecule `NC(CCC(=O)NC(CSCC(=O)c1ccc(Br)cc1)C(=O)NCC(=O)O)C(=O)O` (stereo not given), the IC50 in experiment [1] turned out to be 210000 nM.
Still for that read-out and setting: to `CCCC(C)(c1ccc(OC(=O)Cc2ccc([N+](=O)[O-])cc2)cc1)c1ccc(OC(=O)Nc2ccc([N+](=O)[O-])cc2)cc1` (stereo not given) belongs 300000 nM; to `CCC/C(=N\OCc1ccc(-c2ccc(F)cc2)cc1)C1C(=O)CC(C)(C)C(C#N)C1=O` (stereo not given), 40000 nM.
For the molecule `CSCC[C@H](NC(=O)[C@H](CC(=O)O)NC(=O)[C@H](CC(C)C)NC(=O)[C@H](CCC(N)=O)NC(C)=O)C(=O)N[C@@H](Cc1ccc(Cl)c(Cl)c1)C(=O)O` (Ac-QLDM[Phe(3,4-Cl2)]-OH), the IC50 in experiment [1] worked out at 37 nM; in experiment [2], 33 nM.
With `CC(C)C[C@H](NC(=O)[C@H](CC(=O)O)NC(=O)[C@H](CC(C)C)NC(=O)[C@@H]1CCC(=O)N1)C(=O)N[C@@H](Cc1ccccc1)C(=O)O` ([pGlu]LDLF-OH), the IC50 in experiment [1] is 4500 nM.
The same measure, in the same setting: to H-IGQADFFGV-OH belongs 174000 nM; to H-IGQADIFGV-OH, 315000 nM.
On the same count and under the same terms, the result for H-IGQADLFGV-OH reads 56000 nM; that for H-IGQADMWGV-OH, 282000 nM.
As for H-IGQADWFGV-OH, the half-inhibitory concentration (IC50) in experiment [1] amounted to 345000 nM.
Take H-IGQLSLFGV-OH: the IC50 in experiment [1] was found to be 2300 nM; in experiment [2], 550 nM.
